IC50 and viability, T/C data for five compounds are collected here from PubChem BioAssay AID1963436 (Molecular Pharmacology Branch, DTP, NCI, 2024).

“And” between values parts separate entries of the source, which are not always exact repeats. Equal values may be shown once.

The assay relates to OVCAR-5 complex spheroid (HUVEC/MSC), viability % T/C. The assay is described as follows: Anticancer human tumor OVCAR-5 cell line growth inhibition [Asc].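 As to all read-outs here: spheroids exposed to agents for 7 days before readout.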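 As to viability, T/C: 100% = DMSO vehicle-treated wells.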 The settings on record: for viability, T/C: stronger effect = lower value. A digest of the protocol: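 Complex spheroids combining tumor cells with HUVEC endothelial cells and human MSCs, at 37 degrees C, 5% CO2; agents tested alone or combined, half-log dilutions from at or near clinical Cmax, or 10 microM if Cmax unknown.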

The mark [1] stands for this setting: curve of first compound, second compound 0.1 µM.
The mark [2] stands for this setting: curve of first compound, second compound 0.316 µM.
[3] abbreviates: curve of first compound, second compound 1 µM.
[4] abbreviates: curve of first compound, second compound 3.16 µM.
Setting [5] is: curve of first compound, second compound 10 µM.
[6] abbreviates: second compound 0.1 µM, first compound 0.00949 µM.
Setting [7] is: second compound 0.1 µM, first compound 0.03 µM.
[8] abbreviates: second compound 0.1 µM, first compound 0.0949 µM.
Setting [9] is: second compound 0.1 µM, first compound 0.3 µM.
[10] abbreviates: second compound 0.316 µM, first compound 0.00949 µM.
Where [11] appears, read: second compound 0.316 µM, first compound 0.03 µM.
Where [12] appears, read: second compound 0.316 µM, first compound 0.0949 µM.
The mark [13] stands for this setting: second compound 0.316 µM, first compound 0.3 µM.
Setting [14] is: second compound 1 µM, first compound 0.00949 µM.
The mark [15] stands for this setting: second compound 1 µM, first compound 0.03 µM.
Setting [16] is: second compound 1 µM, first compound 0.0949 µM.
Where [17] appears, read: second compound 1 µM, first compound 0.3 µM.
Where [18] appears, read: second compound 3.16 µM, first compound 0.00949 µM.
Setting [19] is: second compound 3.16 µM, first compound 0.03 µM.
The mark [20] stands for this setting: second compound 3.16 µM, first compound 0.0949 µM.
Setting [21] is: second compound 3.16 µM, first compound 0.3 µM.
Setting [22] is: second compound 10 µM, first compound 0.00949 µM.
Where [23] appears, read: second compound 10 µM, first compound 0.03 µM.
Where [24] appears, read: second compound 10 µM, first compound 0.0949 µM.
[25] abbreviates: second compound 10 µM, first compound 0.3 µM.

Broadly, the IC50 is the midpoint of a concentration-inhibition curve. One may read the viability, T/C as the result in the treated group divided by that in the control group, in per cent. Turning to `Cc1nc(N2CCC3(CC2)COC(C)C3N)c(CO)nc1Sc1ccnc(N)c1Cl` (centres undefined) + Cc1c(S(C)(=O)=O)c(-c2cc(F)cc(N3CCN(c4ccc(NS(=O)(=O)c5ccc(NC(CCN6CCC(C(=O)OCCCP(=O)(O)O)CC6)CSc6ccccc6)c(S(=O)(=O)C(F)(F)F)c5)cc4)CC3)c2)c(-c2ccc(Cl)cc2)n1C(C)C, the IC50 runs as follows: under setting [1], 1900 nM; under setting [2], 1130 nM; under setting [3], 1190 nM; under setting [4], 782 nM; under setting [5], 2850 nM. Moreover, the viability, T/C is, setting by setting: under setting [6], 96.4%; under setting [7], 83.9%; under setting [8], 81.7%; under setting [9], 62.8%; (second compound 0.1 µM, first compound 0.949 µM) 55.7%; (second compound 0.1 µM, first compound 3 µM) 46.9%. The viability, T/C is 95.8% under setting [10]; 85.1% under setting [11]; 73.9% under setting [12]; 55.6% under setting [13]; 55.2% (second compound 0.316 µM, first compound 0.949 µM); 42.9% (second compound 0.316 µM, first compound 3 µM). Moreover, the viability, T/C by setting is: under setting [14], 78.1%; under setting [15], 76.9%; under setting [16], 72.4%; under setting [17], 68.4%; (second compound 1 µM, first compound 0.949 µM) 51.1%; (second compound 1 µM, first compound 3 µM) 42.6%. Further, the viability, T/C by setting is: under setting [18], 87.7%; under setting [19], 85%; under setting [20], 72.5%; under setting [21], 59.9%; (second compound 3.16 µM, first compound 0.949 µM) 45.6%; (second compound 3.16 µM, first compound 3 µM) 46.9%. The viability, T/C under setting [22] is 105%; the viability, T/C under setting [23] was 94%; the viability, T/C under setting [24] was 88.6%; the viability, T/C under setting [25] was 87.3%; the viability, T/C (second compound 10 µM, first compound 0.949 µM) is 64.8%; the viability, T/C (second compound 10 µM, first compound 3 µM) was 49%.
For `O=C(c1ccc(F)c(F)c1Nc1ccc(I)cc1F)N1CC(O)([C@@H]2CCCCN2)C1`, the viability, T/C is, setting by setting: (compound 0.00316 µM) 97.8% and 97.6% and 103%; (compound 0.01 µM) 96.5% and 97.5% and 102%; (compound 0.0316 µM) 69.4% and 74.8% and 72.2%; (compound 0.1 µM) 53% and 61.5% and 50.5%; (compound 0.316 µM) 44.4% and 51% and 47.7%; (compound 1 µM) 30.7% and 36% and 33.2%. Further, for the setting “curve of compound”, the IC50 is 134 nM and 265 nM and 103 nM.
As to `NC(=O)C(=Cn1cnc(-c2cc(C(F)(F)F)cc(C(F)(F)F)c2)n1)c1cncnc1`, the viability, T/C was 102% and 107% and 95.8% (compound 0.000949 µM); 105% and 93.1% and 99.5% (compound 0.003 µM); 88.8% and 83.2% and 86.8% (compound 0.00949 µM); 89.3% and 78.8% and 86% (compound 0.03 µM); 78.5% and 71.5% and 81.5% (compound 0.0949 µM); 45.6% and 40.4% and 54.9% (compound 0.3 µM). Further, the IC50 (curve of compound) is 265 nM and 212 nM and > 300 nM.
Consider `NC(=O)C(=Cn1cnc(-c2cc(C(F)(F)F)cc(C(F)(F)F)c2)n1)c1cncnc1` + Cc1c(S(C)(=O)=O)c(-c2cc(F)cc(N3CCN(c4ccc(NS(=O)(=O)c5ccc(NC(CCN6CCC(C(=O)OCCCP(=O)(O)O)CC6)CSc6ccccc6)c(S(=O)(=O)C(F)(F)F)c5)cc4)CC3)c2)c(-c2ccc(Cl)cc2)n1C(C)C, for which the IC50 by setting is: under setting [1], 199 nM; under setting [2], 137 nM; under setting [3], 106 nM; under setting [4], 63.9 nM; under setting [5], 66.8 nM. In addition, the viability, T/C was 106% (second compound 0.1 µM, first compound 0.000949 µM); 99.1% (second compound 0.1 µM, first compound 0.003 µM); 91.7% under setting [6]; 79.6% under setting [7]; 82.2% under setting [8]; 34.8% under setting [9]. In addition, the viability, T/C is 100% (second compound 0.316 µM, first compound 0.000949 µM); 96.2% (second compound 0.316 µM, first compound 0.003 µM); 93.7% under setting [10]; 77.6% under setting [11]; 60.3% under setting [12]; 29.3% under setting [13]. Besides, the viability, T/C reads like this: (second compound 1 µM, first compound 0.000949 µM) 98.3%; (second compound 1 µM, first compound 0.003 µM) 103%; under setting [14], 79.7%; under setting [15], 79%; under setting [16], 53.1%; under setting [17], 19.1%. In addition, the viability, T/C reads like this: (second compound 3.16 µM, first compound 0.000949 µM) 97.1%; (second compound 3.16 µM, first compound 0.003 µM) 98.5%; under setting [18], 91.8%; under setting [19], 66.3%; under setting [20], 41.9%; under setting [21], 17%. Also, the viability, T/C reads like this: (second compound 10 µM, first compound 0.000949 µM) 119%; (second compound 10 µM, first compound 0.003 µM) 121%; under setting [22], 111%; under setting [23], 85.2%; under setting [24], 34.5%; under setting [25], 8.64%.
In the case of `C=C(F)C(=O)N1CCN(c2nc(OCC3CCCN3C)nc3c2CCN(c2cccc4cccc(Cl)c24)C3)CC1CC#N` (centres undefined) + CNC(C)C(=O)NC1CN(S(=O)(=O)c2cccc(S(=O)(=O)N3CCC4CCC(C(=O)NC(c5ccccc5)c5ccccc5)N4C(=O)C(NC(=O)C(C)NC)C3)c2)CCC2CCC(C(=O)NC(c3ccccc3)c3ccccc3)N2C1=O, the IC50 runs as follows: (curve of first compound, second compound 0.01 µM) 1320 nM; (curve of first compound, second compound 0.0316 µM) 1150 nM; under setting [1], 968 nM; under setting [2], 844 nM; under setting [3], 740 nM. For the same compound, the viability, T/C is 105% (second compound 0.01 µM, first compound 0.0316 µM); 93.5% (second compound 0.01 µM, first compound 0.1 µM); 82.5% (second compound 0.01 µM, first compound 0.316 µM); 66.2% (second compound 0.01 µM, first compound 1 µM); 11.3% (second compound 0.01 µM, first compound 3.16 µM); 0.22% (second compound 0.01 µM, first compound 10 µM). The viability, T/C (second compound 0.0316 µM, first compound 0.0316 µM) was 94.4%; the viability, T/C (second compound 0.0316 µM, first compound 0.1 µM) is 78.9%; the viability, T/C (second compound 0.0316 µM, first compound 0.316 µM) is 79%; the viability, T/C (second compound 0.0316 µM, first compound 1 µM) is 56.7%; the viability, T/C (second compound 0.0316 µM, first compound 3.16 µM) was 11.6%; the viability, T/C (second compound 0.0316 µM, first compound 10 µM) was 0.16%. Further, the viability, T/C (second compound 0.1 µM, first compound 0.0316 µM) is 92%; the viability, T/C (second compound 0.1 µM, first compound 0.1 µM) was 84%; the viability, T/C (second compound 0.1 µM, first compound 0.316 µM) is 76.9%; the viability, T/C (second compound 0.1 µM, first compound 1 µM) is 51.2%; the viability, T/C (second compound 0.1 µM, first compound 3.16 µM) was 10.4%; the viability, T/C (second compound 0.1 µM, first compound 10 µM) was 0.18%. In addition, the viability, T/C by setting is: (second compound 0.316 µM, first compound 0.0316 µM) 90.5%; (second compound 0.316 µM, first compound 0.1 µM) 79.2%; (second compound 0.316 µM, first compound 0.316 µM) 70.4%; (second compound 0.316 µM, first compound 1 µM) 50.3%; (second compound 0.316 µM, first compound 3.16 µM) 9.19%; (second compound 0.316 µM, first compound 10 µM) 0.16%. In addition, the viability, T/C runs as follows: (second compound 1 µM, first compound 0.0316 µM) 90.3%; (second compound 1 µM, first compound 0.1 µM) 89.5%; (second compound 1 µM, first compound 0.316 µM) 67%; (second compound 1 µM, first compound 1 µM) 46.5%; (second compound 1 µM, first compound 3.16 µM) 10.2%; (second compound 1 µM, first compound 10 µM) 0.23%.
